Tested on in one data set: not listed separately
The data set is described as follows: Half reaction time was determined. It is filed as ADME. The note with it: mouse.
Take `Br.N=c1sc2c(n1CC(=O)c1ccc([N+](=O)[O-])cc1)CC1CCCCC1C2` (stereo unspecified): the half-life was 5 h. Same read-out and setting: then `Br.N=c1sc2c(n1CC(=O)c1ccc([N+](=O)[O-])cc1)CCCC2`, with 6 h; and `Br.COc1ccc(C(=O)C(C#N)n2c3c(sc2=N)CCCC3)cc1` (stereo unspecified), with 12 h; and `Br.Cc1ccc(C(=O)Cn2c3c(sc2=N)CCCC3)cc1`, with 4 h.

For a further data set, the species on record is Mus musculus. Put plainly: Effective concentration required to protect mouse embryo cortical neurons against a DNA-damaging agent. It is filed as functional.
Conditions: not given
`Br.COc1ccc(C(=O)C(C#N)n2c3c(sc2=N)CCCC3)cc1` (stereo unspecified): the EC50 is roughly 30 nM. On the same count and under the same terms, then `O=[N+]([O-])c1ccc(-c2cn3c4c(sc3n2)CCCC4)cc1`, with roughly 30 nM.

Source of the values: ChEMBL document CHEMBL1141906, “Novel cyclized Pifithrin-alpha p53 inactivators: synthesis and biological studies” (Bioorg Med Chem Lett, 2005).
